In publication PMC9898036, “VIP152 is a selective CDK9 inhibitor with pre-clinical in vitro and in vivo efficacy in chronic lymphocytic leukemia” (Leukemia, 2022):

What was measured:
Glucocorticoid = Glucocorticoid (Homo sapiens, UniProt P04150); test: Eurofins Diversity Panel; assay type: binding; details: hum, Conc. 10 μM
CSK = CSK (Homo sapiens, UniProt P41240); test: KINOMEscan: CSK; assay type: binding; details: 1000 nM, read-out: Percent Control
RIOK2 = RIOK2 (Homo sapiens, UniProt Q9BVS4); test: KINOMEscan: RIOK2; assay type: binding; details: 100 nM, read-out: Percent Control
ROS1 = ROS1 (Homo sapiens, UniProt P08922); test: KINOMEscan: ROS1; assay type: binding; details: 100 nM, read-out: Percent Control
Adrenergic β1 = Adrenergic β1 (Homo sapiens, UniProt P08588); test: Eurofins Diversity Panel; assay type: binding; details: hum, Conc. 10 μM
SRPK1 = SRPK1 (Homo sapiens, UniProt Q96SB4); test: KINOMEscan: SRPK1; assay type: binding; details: 100 nM, read-out: Percent Control
EPHB2 = EPHB2 (Homo sapiens, UniProt P29323); test: KINOMEscan: EPHB2; assay type: binding; details: 1000 nM, read-out: Percent Control
MKK7 = MKK7 (Homo sapiens, UniProt O14733); test: KINOMEscan: MKK7; assay type: binding; details: 1000 nM, read-out: Percent Control
STK33 = STK33 (Homo sapiens, UniProt Q9BYT3); test: KINOMEscan: STK33; assay type: binding; details: 100 nM, read-out: Percent Control
Adrenergic β2 = Adrenergic β2 (Homo sapiens, UniProt P07550); test: Eurofins Diversity Panel; assay type: binding; details: hum, Conc. 10 μM
ERBB3 = ERBB3 (Homo sapiens, UniProt P21860); test: KINOMEscan: ERBB3; assay type: binding; details: 1000 nM, read-out: Percent Control
CAMK2D = CAMK2D (Homo sapiens, UniProt Q13557); test: KINOMEscan: CAMK2D; assay type: binding; details: 1000 nM, read-out: Percent Control
CSF1R = CSF1R (Homo sapiens, UniProt P07333); test: KINOMEscan: CSF1R; assay type: binding; details: 1000 nM, read-out: Percent Control
[1] = test system: Glutamate, NMDA, Phencyclidine; test: Eurofins Diversity Panel; assay type: binding; details: rat, Conc. 10 μM
FLT3(R834Q) = FLT3(R834Q) (Homo sapiens, UniProt P36888, R834Q); test: KINOMEscan: FLT3(R834Q); assay type: binding; details: 1000 nM, read-out: Percent Control
KIT(A829P) = KIT(A829P) (Homo sapiens, UniProt P10721, A829P); test: KINOMEscan: KIT(A829P); assay type: binding; details: 1000 nM, read-out: Percent Control
Bradykinin B1 = Bradykinin B1 (Homo sapiens, UniProt P46663); test: Eurofins Diversity Panel; assay type: binding; details: hum, Conc. 10 μM
MTOR = MTOR (Homo sapiens, UniProt P42345); test: KINOMEscan: MTOR; assay type: binding; details: 1000 nM, read-out: Percent Control
PFCDPK1(P.falciparum) = PFCDPK1(P.falciparum) (Plasmodium falciparum, UniProt P62344); test: DiscoverX KINOMEscan kinase profiling: PFCDPK1(P.falciparum); assay type: binding; details: PFCDPK1(P.falciparum) (Entrez CDPK1); 100 nM; read-out: Percent Control
Dopamine D2S = Dopamine D2S (Homo sapiens, UniProt P14416); test: Eurofins Diversity Panel; assay type: binding; details: hum, Conc. 10 μM
CDK7/Cyclin H = CDK7/Cyclin H (Homo sapiens, UniProt P50613); test: NanoBRET target engagement assay (HEK293); assay type: cell-based; set-up: host or cells: HEK293
TESK1 = TESK1 (Homo sapiens, UniProt Q15569); test: KINOMEscan: TESK1; assay type: binding; details: 100 nM, read-out: Percent Control
AMPK-alpha1 = AMPK-alpha1 (Homo sapiens, UniProt Q13131); test: KINOMEscan: AMPK-alpha1; assay type: binding; details: 1000 nM, read-out: Percent Control
IRAK4 = IRAK4 (Homo sapiens, UniProt Q9NWZ3); test: KINOMEscan: IRAK4; assay type: binding; details: 1000 nM, read-out: Percent Control
CSF1R-autoinhibited = CSF1R-autoinhibited (Homo sapiens, UniProt P07333); test: KINOMEscan: CSF1R-autoinhibited; assay type: binding; details: 1000 nM, read-out: Percent Control
[2] = target: Serotonin (5-Hydroxytryptamine) 5-HT3) (Homo sapiens, UniProt P46098); test: Eurofins Diversity Panel; assay type: binding; details: hum, Conc. 10 μM
EGFR(L861Q) = EGFR(L861Q) (Homo sapiens, UniProt P00533, L861Q); test: KINOMEscan: EGFR(L861Q); assay type: binding; details: 1000 nM, read-out: Percent Control
Opiate δ1 (OP1, DOP) = Opiate δ1 (OP1, DOP) (Homo sapiens, UniProt P41143); test: Eurofins Diversity Panel; assay type: binding; details: hum, Conc. 10 μM
LYN = LYN (Homo sapiens, UniProt P07948); test: KINOMEscan: LYN; assay type: binding; details: 1000 nM, read-out: Percent Control
SNARK = SNARK (Homo sapiens, UniProt Q9H093); test: KINOMEscan: SNARK; assay type: binding; details: 100 nM, read-out: Percent Control
[3] = test system: broad range of receptors, transporters, ion channels, and enzymes; test: Eurofins Diversity Panel, whole panel (n = 138); assay type: binding; details: 10 µM, except imidazoline I2, Sigma σ1, adrenergic α2A, α2B, α2C
KIT(D816V) = KIT(D816V) (Homo sapiens, UniProt P10721, D816V); test: KINOMEscan: KIT(D816V); assay type: binding; details: 1000 nM, read-out: Percent Control
MET(M1250T) = MET(M1250T) (Homo sapiens, UniProt P08581, M1250T); test: KINOMEscan: MET(M1250T); assay type: binding; details: 1000 nM, read-out: Percent Control

KIT(D816V), sequence (P10721 26-976 D816V): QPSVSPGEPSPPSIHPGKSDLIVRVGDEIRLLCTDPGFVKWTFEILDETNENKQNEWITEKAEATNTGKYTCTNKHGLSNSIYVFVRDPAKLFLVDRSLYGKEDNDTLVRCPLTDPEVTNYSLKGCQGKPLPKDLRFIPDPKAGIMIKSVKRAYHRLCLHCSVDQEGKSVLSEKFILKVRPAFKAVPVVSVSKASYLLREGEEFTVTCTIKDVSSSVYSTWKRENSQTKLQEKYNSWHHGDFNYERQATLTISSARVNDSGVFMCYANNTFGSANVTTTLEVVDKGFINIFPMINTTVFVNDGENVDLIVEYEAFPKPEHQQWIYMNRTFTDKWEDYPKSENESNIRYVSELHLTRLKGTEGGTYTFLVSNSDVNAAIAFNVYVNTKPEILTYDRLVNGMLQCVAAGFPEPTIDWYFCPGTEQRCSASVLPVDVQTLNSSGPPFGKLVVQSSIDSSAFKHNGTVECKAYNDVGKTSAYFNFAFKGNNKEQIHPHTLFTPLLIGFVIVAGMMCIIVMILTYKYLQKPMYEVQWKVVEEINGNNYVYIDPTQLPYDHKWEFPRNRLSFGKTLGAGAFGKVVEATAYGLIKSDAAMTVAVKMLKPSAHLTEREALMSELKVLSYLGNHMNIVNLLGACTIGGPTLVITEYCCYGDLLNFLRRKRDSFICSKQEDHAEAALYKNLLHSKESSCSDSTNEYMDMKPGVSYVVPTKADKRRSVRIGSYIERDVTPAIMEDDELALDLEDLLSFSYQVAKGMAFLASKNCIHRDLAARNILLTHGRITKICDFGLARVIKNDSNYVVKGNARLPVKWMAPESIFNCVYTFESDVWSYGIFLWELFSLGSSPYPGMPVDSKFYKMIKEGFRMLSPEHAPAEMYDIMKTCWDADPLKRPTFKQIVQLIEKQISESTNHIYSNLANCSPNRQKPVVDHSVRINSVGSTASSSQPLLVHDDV
Glucocorticoid, sequence (P04150 whole entry): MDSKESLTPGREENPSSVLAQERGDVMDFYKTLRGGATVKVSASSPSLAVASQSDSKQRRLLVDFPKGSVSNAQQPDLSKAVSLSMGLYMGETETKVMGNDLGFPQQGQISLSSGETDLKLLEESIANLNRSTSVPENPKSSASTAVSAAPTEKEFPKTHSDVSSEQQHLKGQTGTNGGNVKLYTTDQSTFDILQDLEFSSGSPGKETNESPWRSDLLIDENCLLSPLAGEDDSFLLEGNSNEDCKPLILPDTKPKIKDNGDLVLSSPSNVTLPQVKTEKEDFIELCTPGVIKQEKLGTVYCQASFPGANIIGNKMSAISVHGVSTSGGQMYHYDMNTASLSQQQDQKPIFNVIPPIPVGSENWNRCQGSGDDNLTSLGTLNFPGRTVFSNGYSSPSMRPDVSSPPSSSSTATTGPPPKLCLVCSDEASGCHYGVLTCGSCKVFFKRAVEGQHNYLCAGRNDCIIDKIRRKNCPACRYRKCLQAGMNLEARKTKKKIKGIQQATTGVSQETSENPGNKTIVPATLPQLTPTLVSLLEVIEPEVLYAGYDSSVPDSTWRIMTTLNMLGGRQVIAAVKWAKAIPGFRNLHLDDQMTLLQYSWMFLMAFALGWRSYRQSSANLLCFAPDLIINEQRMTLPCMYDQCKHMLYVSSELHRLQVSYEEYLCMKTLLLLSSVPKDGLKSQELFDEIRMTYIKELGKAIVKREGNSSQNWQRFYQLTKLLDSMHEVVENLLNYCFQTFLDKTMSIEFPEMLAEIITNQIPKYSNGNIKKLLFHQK
Dopamine D2S, sequence (P14416 1-414 isoform P14416-2): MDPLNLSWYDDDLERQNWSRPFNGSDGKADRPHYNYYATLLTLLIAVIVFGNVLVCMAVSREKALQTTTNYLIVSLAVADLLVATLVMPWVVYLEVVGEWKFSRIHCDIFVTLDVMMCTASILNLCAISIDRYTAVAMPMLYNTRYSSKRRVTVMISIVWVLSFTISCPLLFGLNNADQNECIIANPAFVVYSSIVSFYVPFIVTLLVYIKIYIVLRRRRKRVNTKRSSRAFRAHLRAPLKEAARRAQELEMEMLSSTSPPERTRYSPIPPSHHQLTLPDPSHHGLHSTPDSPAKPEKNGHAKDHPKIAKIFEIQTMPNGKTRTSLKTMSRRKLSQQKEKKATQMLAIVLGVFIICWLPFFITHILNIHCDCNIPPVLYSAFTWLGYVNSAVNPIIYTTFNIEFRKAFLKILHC
IRAK4, sequence (Q9NWZ3 whole entry): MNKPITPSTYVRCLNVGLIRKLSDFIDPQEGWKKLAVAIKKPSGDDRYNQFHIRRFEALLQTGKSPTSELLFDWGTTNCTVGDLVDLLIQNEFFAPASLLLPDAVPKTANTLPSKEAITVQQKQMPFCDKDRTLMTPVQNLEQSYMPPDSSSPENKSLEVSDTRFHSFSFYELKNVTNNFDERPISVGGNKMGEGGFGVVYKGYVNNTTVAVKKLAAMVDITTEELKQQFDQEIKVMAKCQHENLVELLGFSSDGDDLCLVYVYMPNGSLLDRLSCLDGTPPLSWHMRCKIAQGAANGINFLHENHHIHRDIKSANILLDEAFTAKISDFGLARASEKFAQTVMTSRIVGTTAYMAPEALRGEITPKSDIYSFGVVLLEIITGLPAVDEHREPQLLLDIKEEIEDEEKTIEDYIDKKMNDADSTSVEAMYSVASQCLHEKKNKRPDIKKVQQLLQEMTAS
CDK7/Cyclin H, sequence (P50613 whole entry): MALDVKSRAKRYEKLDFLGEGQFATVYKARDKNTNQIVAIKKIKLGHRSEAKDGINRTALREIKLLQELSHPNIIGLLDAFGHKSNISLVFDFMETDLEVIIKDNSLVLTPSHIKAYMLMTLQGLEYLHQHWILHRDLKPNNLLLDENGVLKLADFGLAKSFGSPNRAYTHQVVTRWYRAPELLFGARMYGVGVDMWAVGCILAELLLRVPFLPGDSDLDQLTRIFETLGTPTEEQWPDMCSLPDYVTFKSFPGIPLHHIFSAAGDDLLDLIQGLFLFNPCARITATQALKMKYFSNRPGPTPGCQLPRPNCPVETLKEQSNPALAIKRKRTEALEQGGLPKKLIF
CDK7/Cyclin H, sequence (P51946 whole entry partner): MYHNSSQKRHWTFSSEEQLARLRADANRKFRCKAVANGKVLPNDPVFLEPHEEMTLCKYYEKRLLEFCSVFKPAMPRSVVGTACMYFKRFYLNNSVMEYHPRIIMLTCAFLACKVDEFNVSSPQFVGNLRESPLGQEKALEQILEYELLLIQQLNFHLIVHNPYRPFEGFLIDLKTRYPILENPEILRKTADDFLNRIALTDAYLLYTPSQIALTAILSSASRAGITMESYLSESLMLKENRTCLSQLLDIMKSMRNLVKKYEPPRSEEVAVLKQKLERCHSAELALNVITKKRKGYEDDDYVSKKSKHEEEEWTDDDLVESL
CSF1R, sequence (P07333 20-972): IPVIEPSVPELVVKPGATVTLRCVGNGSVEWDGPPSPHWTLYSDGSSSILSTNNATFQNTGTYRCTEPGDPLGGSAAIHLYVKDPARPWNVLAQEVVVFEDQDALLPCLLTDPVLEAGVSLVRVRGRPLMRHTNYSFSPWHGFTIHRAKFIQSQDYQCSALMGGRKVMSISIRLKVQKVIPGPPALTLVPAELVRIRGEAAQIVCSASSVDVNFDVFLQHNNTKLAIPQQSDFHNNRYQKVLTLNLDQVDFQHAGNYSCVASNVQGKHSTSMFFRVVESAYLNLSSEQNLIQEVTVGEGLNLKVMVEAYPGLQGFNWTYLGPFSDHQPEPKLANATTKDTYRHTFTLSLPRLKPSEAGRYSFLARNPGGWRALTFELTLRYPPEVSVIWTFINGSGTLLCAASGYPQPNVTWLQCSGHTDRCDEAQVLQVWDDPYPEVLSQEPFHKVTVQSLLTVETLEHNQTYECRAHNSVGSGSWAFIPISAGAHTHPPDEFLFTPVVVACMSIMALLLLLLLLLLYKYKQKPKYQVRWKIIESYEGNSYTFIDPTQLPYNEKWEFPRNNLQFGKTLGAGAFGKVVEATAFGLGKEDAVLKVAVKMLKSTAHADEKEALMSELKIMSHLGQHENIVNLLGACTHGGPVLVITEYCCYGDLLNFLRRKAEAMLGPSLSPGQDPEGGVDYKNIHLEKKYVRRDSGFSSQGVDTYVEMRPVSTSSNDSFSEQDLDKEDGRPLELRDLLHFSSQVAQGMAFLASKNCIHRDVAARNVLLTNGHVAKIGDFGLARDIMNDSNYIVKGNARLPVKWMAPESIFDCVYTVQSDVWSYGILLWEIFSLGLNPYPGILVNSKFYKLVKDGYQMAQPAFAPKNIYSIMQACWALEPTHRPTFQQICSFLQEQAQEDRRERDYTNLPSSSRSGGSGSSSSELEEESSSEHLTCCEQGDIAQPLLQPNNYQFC
Adrenergic β2, sequence (P07550 whole entry): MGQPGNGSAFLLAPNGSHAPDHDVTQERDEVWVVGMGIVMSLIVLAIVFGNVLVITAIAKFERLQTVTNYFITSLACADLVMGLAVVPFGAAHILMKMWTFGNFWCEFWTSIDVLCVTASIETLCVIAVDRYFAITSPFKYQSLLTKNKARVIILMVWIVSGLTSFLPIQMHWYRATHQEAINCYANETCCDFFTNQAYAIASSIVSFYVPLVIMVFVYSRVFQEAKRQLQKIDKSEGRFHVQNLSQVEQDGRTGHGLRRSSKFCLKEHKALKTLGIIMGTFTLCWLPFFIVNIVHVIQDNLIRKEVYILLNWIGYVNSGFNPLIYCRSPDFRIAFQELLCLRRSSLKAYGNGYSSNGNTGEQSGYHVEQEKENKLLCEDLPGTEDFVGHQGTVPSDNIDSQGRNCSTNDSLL
KIT(A829P), sequence (P10721 26-976 A829P): as the sequence (P10721 26-976 D816V) above, with V791D, A804P counted along it

COc1cc(F)ccc1-c1cc(Nc2cc(CS(C)(=N)=O)ccn2)ncc1F (stereo not drawn) [VIP152]
inhibition at 10 µM (Glucocorticoid): 30%
remaining binding at 1 µM (CSK): 92%
remaining binding at 0.1 µM (RIOK2): 100%
remaining binding at 0.1 µM (ROS1): 100%
inhibition at 10 µM (Adrenergic β1): -7%
remaining binding at 0.1 µM (SRPK1): 100%
remaining binding at 1 µM (EPHB2): 92%
remaining binding at 1 µM (MKK7): 100%
remaining binding at 0.1 µM (STK33): 88%
inhibition at 10 µM (Adrenergic β2): 3%
remaining binding at 1 µM (ERBB3): 98%
remaining binding at 1 µM (CAMK2D): 69%
remaining binding at 1 µM (CSF1R): 70%
% Inh. [1]: 5%
remaining binding at 1 µM (FLT3(R834Q)): 78%
remaining binding at 1 µM (KIT(A829P)): 100%
inhibition at 10 µM (Bradykinin B1): 1%
remaining binding at 1 µM (MTOR): 100%
remaining binding at 0.1 µM (PFCDPK1(P.falciparum)): 97%
inhibition at 10 µM (Dopamine D2S): 15%
IC50 compared with other inhibitors (CDK7/Cyclin H): IC50 was higher than dinaciclib and KB-0742
remaining binding at 0.1 µM (TESK1): 100%
remaining binding at 1 µM (AMPK-alpha1): 91%
remaining binding at 1 µM (IRAK4): 78%
remaining binding at 1 µM (CSF1R-autoinhibited): 73%
inhibition at 10 µM [2]: -3%
remaining binding at 1 µM (EGFR(L861Q)): 100%
inhibition at 10 µM (Opiate δ1 (OP1, DOP)): 9%
remaining binding at 1 µM (LYN): 90%
remaining binding at 0.1 µM (SNARK): 100%
off-target activity across the panel [3]: No significant (>50%) interference
remaining binding at 1 µM (KIT(D816V)): 88%
remaining binding at 1 µM (MET(M1250T)): 27%
